Source: patent US5880256A, “Factor VIIa inhibitors from Kunitz domain proteins” (Genentech, Inc., priority 1995, dated 1999)
Positions of bridges follow the written chain, without caps; N, C: chain ends. No end group written: not given here.

How the values were obtained:
[1] = tested on: New Zealand white rabbits; experiment: Cuticle bleeding time in the rabbit model; type: in vivo; details: for bleeding compared to the saline control (in words): after 10 minutes
Protocol: Male New Zealand white rabbits (~4 kg) were anesthetized to surgical anesthesia plane with an IM injection of Ketamine / Xylaxine. The rabbits were placed supine on a restraining board, warmed to 37° C., and the neck and inner thigh area shaved. Teflon catheters were replaced in a marginal ear vein and femoral artery for drug delivery and sample collection respectively. Prior to treatment, blood samples were collected for coagulation tests (APTT and PT). Bleeding time was assessed from a cut made in the cuticle portion of a hind limb nail. Incisions were made in the neck region and the entire left common carotid artery and its branches were surgically isolated. An ultrasonic flow probe (Transonics®) was placed on the common carotid approximately 5 cm caudal to the common--internal bifurcation. After blood flow reached a stable baseline, drugs (saline or test compounds) were delivered via the marginal ear vein. A deflated embolectomy catheter (Fogarty®, 3F) was then introduced into the lumen of the common via an incision in the lingual branch. Blood flow through the artery was stopped briefly while the catheter was introduced and loosely secured with 2-0 silk tie at the incision site. After the catheter was in place and secure, blood flow was restored. The deflated balloon was advanced to within 2 mm of the flow probe and inflated with saline until resistance of the vessel wall was felt. The catheter was pulled back with a steady motion to the first branch and then deflated. This procedure was repeated a total of six times for each experimental animal, after which the catheter was removed. […] Over 40 minutes, blood samples were taken for APTT and PT measurements, cuticle bleeding times were assessed and blood flow through the carotid monitored. Duration of patency was defined as the total amount of time (maximum=40 minutes) that any measurable blood flow is detected in the artery. Patency rate refers to the percentage of animals tested who had carotid artery blood flow≥5 minutes. […] If any thrombus was present, it was removed, blotted and the weight recorded. […]

normal human plasma = experiment: Activated partial thromboplastin time (APTT) assay, initiated by ellagic acid; type: biochemical
Protocol: For the activated partial thromboplastin time (APTT) assays, the activation time was set at 120 sec and acquisition time at 300 to 600 sec depending on the expected outcome of the assay. Citrated normal human plasma and inhibitor were incubated together. The sample (plasma and inhibitor) and activator (Instrumentation Laboratories Ellagic acid/Phospholipid mix Test Reagent) were automatically pipetted and incubated together for 2 min at 37° C., then CaCl2 was added and clotting time determined by means of optical assessment. The total incubation time of inhibitor with plasma was ca. 3 min before addition of activator, and 5 min before addition of CaCl2.

[2] = tested on: New Zealand white rabbits; experiment: Rabbit deep medial injury model (carotid artery patency, thrombus weight); type: in vivo
Protocol: Male New Zealand white rabbits (~4 kg) were anesthetized to surgical anesthesia plane with an IM injection of Ketamine / Xylaxine. The rabbits were placed supine on a restraining board, warmed to 37° C., and the neck and inner thigh area shaved. Teflon catheters were replaced in a marginal ear vein and femoral artery for drug delivery and sample collection respectively. Prior to treatment, blood samples were collected for coagulation tests (APTT and PT). Bleeding time was assessed from a cut made in the cuticle portion of a hind limb nail. Incisions were made in the neck region and the entire left common carotid artery and its branches were surgically isolated. An ultrasonic flow probe (Transonics®) was placed on the common carotid approximately 5 cm caudal to the common--internal bifurcation. After blood flow reached a stable baseline, drugs (saline or test compounds) were delivered via the marginal ear vein. A deflated embolectomy catheter (Fogarty®, 3F) was then introduced into the lumen of the common via an incision in the lingual branch. Blood flow through the artery was stopped briefly while the catheter was introduced and loosely secured with 2-0 silk tie at the incision site. After the catheter was in place and secure, blood flow was restored. The deflated balloon was advanced to within 2 mm of the flow probe and inflated with saline until resistance of the vessel wall was felt. The catheter was pulled back with a steady motion to the first branch and then deflated. This procedure was repeated a total of six times for each experimental animal, after which the catheter was removed. […] Over 40 minutes, blood samples were taken for APTT and PT measurements, cuticle bleeding times were assessed and blood flow through the carotid monitored. Duration of patency was defined as the total amount of time (maximum=40 minutes) that any measurable blood flow is detected in the artery. Patency rate refers to the percentage of animals tested who had carotid artery blood flow≥5 minutes. At the end of the experiment the rabbit was euthanized and the carotid artery removed and opened. If any thrombus was present, it was removed, blotted and the weight recorded.
[Heparin was dosed as a 25 u/kg bolus followed by a continuous infusion of 1) 0.5 u/kg/min or 2) 1 u/kg/min. Other reagents were given as a 2 mg/kg IV bolus. With the exception of the patency data, values are expressed as means ±sem.]

`CC[C@H](C)[C@@H]1NC(=O)[C@H](CC(C)C)NC(=O)[C@H](C)NC(=O)[C@H](CCCNC(=N)N)NC(=O)[C@@H]2CSSC[C@@H]3NC(=O)CNC(=O)CNC(=O)[C@H](Cc4ccc(O)cc4)NC(=O)[C@H](Cc4ccccc4)NC(=O)[C@H](Cc4ccccc4)NC(=O)[C@@H]4CCCN4C(=O)[C@H](C)NC(=O)[C@H](CSSC[C@H](NC(=O)[C@H](Cc4ccc(O)cc4)NC(=O)[C@H](CCC(=O)O)NC(=O)[C@H](CCC(=O)O)NC(=O)[C@H]([C@@H](C)O)NC(=O)[C@H](CC(=O)O)NC(=O)[C@H](Cc4ccccc4)NC(=O)[C@H](CC(N)=O)NC(=O)[C@H](CC(N)=O)NC(=O)[C@H](CCCNC(=N)N)NC(=O)[C@H](CC(N)=O)NC(=O)CNC(=O)[C@H](Cc4ccc(O)cc4)NC3=O)C(=O)N[C@@H](C)C(=O)N[C@@H](C)C(=O)N[C@@H](C(C)C)C(=O)N[C@H](C(=O)NCC(=O)N[C@@H](CO)C(=O)N[C@@H](C)C(=O)O)CSSC[C@H](NC(=O)[C@@H](NC(=O)[C@H](CCC(=O)O)NC(=O)[C@H](CCCNC(=N)N)NC(=O)[C@@H](N)C(C)C)C(C)C)C(=O)N[C@@H](CO)C(=O)N[C@@H](CCC(=O)O)C(=O)N[C@@H](CCC(N)=O)C(=O)N[C@@H](C)C(=O)N[C@@H](CCC(=O)O)C(=O)N3CCC[C@H]3C(=O)NCC(=O)N3CCC[C@H]3C(=O)N2)NC(=O)[C@H](CCCCN)NC(=O)CNC(=O)[C@H](CCC(=O)O)NC(=O)[C@H]([C@@H](C)O)NC(=O)[C@H](C(C)C)NC(=O)[C@H](CC(=O)O)NC(=O)[C@H](Cc2ccccc2)NC(=O)[C@H](Cc2ccc(O)cc2)NC(=O)[C@H](Cc2c[nH]c3ccccc23)NC(=O)[C@H](CCCNC(=N)N)NC(=O)[C@H](CC(C)C)NC1=O` [TF7I-C] was tested, and the “bleeding compared to the saline control (in words)” value [1] was “did not induce prolonged bleeding”.
With “APPI: Alzheimer's amyloid β-protein precursor inhibitor, 58 residue Kunitz domain, wild type (SEQ ID NO: 34) (VREVCSEQAETGPCRAMISRWYFDVTEGKCAPFFYGGCGGNRNNFDTEEYCMAVCGSA)” the “Cuticle bleeding time, fold increase over pre dose” value ([1]; in vivo, iv, 2 mg/kg) was 2.2 ± 0.6 fold, the “APTT clotting time, fold prolongation” value (normal human plasma; 40 μM inhibitor, uninhibited clotting time 31 s) was 3.6 fold and the “APTT clotting time, fold prolongation” value (normal human plasma; ca. 7 μM inhibitor) was “ca. 3 fold”. The “Patency (%)” value ([2]; rabbit, 2 mg/kg IV bolus, animals with carotid blood flow ≥5 minutes) was 40%, the “Patency Duration” value ([2]; rabbit, 2 mg/kg IV bolus, maximum 40 minutes, mean ± sem) was 13.4 ± 8.5 min and the “Clot (mgs)” value ([2]; rabbit, 2 mg/kg IV bolus, thrombus weight, mean ± sem) was 49.5 ± 18.2 mgs.
For Heparin, the “patency and clot size compared to the saline control (in words)” value ([2]; rabbit deep medial injury model) was “significantly prolonged patency and reduced clot size”, the “Patency (%)” value ([2]; rabbit, Heparin 1: 25 u/kg bolus then 0.5 u/kg/min infusion) was 67% and the “Patency Duration” value ([2]; rabbit, Heparin 1: 25 u/kg bolus then 0.5 u/kg/min infusion, mean ± sem) was 23.3 ± 6.7 min. The “Patency (%)” value ([2]; rabbit, Heparin 2: 25 u/kg bolus then 1 u/kg/min infusion) was 100% and the “Patency Duration” value ([2]; rabbit, Heparin 2: 25 u/kg bolus then 1 u/kg/min infusion, mean ± sem) was 35.2 ± 2.2 min.
With “VREVCSEQAEPGPCRAMMKRWYFDVTEGKCAPFIYGGCYGNRNNFDTEEYCAAVCGSA (disulfide 5-55, 14-38, 30-51) [IV-49C]” the “bleeding compared to the saline control (in words)” value [1] was “did not induce prolonged bleeding”.
